Source: patent US10246486B2, “Macrocyclic inhibitors of flaviviridae viruses” (Gilead Sciences, Inc., priority 2012, dated 2019)
pIC50: −log10 of the molar value.

Tests used:
cyclophilin A = cyclophilin A (Homo sapiens, UniProt P62937); test: biochemical
[1] = test system: HCV replicon 1a (human hepatoma Huh-7 cell line harboring a HCV replicon); test: microbe, parasite or virus in culture; type: cell-based

cyclophilin A, sequence (P62937 whole entry, species assumed): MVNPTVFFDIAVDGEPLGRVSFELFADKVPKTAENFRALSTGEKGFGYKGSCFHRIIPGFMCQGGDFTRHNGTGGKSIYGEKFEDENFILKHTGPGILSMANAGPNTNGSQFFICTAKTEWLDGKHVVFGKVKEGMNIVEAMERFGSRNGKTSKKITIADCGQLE

SMILES | pIC50 (cyclophilin A) | Replicon 1a % inhibition at 1 μm [1] [%]
CC(C)[C@@H]1NC(=O)[C@@H]([C@H](C)O)/C=C/c2ccc3ccc(nc3c2)[C@@H](C)OC(=O)[C@@H]2CCCN(N2)C(=O)[C@H](C)NC1=O [Example 31] | > 7.00 | –
CC(C)[C@@H]1NC(=O)/C=C\c2cc3cc(ccc3cn2)[C@@H](C)NC(=O)[C@@H]2CCCN(N2)C(=O)[C@H](C)NC1=O [Example 12] | 5.00 to 6.00 | –
C[C@@H]1NC(=O)[C@H](CCn2ccnn2)NC(=O)C(C)(C)/C=C/c2cc3cc(ccc3cn2)[C@@H](C)OC(=O)[C@@H]2CCCN(N2)C1=O [Example 50] | – | 12
